The results in this text go back to patent EP0944595B1, “5-CYCLO INDOLE COMPOUNDS AS 5-HT1D RECEPTOR LIGANDS” (NPS Allelix Corp., priority 1996, dated 1998).

In the assay the test system is protein extravasation. Briefly: Inhibition of protein extravasation, trigeminal stimulation assay. The class given is in vivo, Guinea pigs. Particulars: guinea pig dura mater, [125I]-BSA extravasation after stimulation of the right trigeminal ganglion. The method, then: Compounds of the inventions were evaluated for their ability to block neurogenic inflammation via inhibition of protein extravasation using the trigeminal stimulation assay as described in Markowitz, et al. J, Neurosci. 1987, 7:4129 and Lee, et al. Brain Res, 1993, 626:303. This is believed to indicate a compound's ability to act as an agonist at the 5-HT1Da and/or 5-HT1F receptors.
Guinea pigs were anesthetized with pentobarbitone sodium (60 mg kg^-1, i.p.). Animals were placed in a stereotaxic frame (DKI 900, David Kopf Instruments, Tujunga, CA, U.S.A.). The right femoral vein was exposed and [^125I]-BSA ([…]) was injected as a bolus. With the incisor bar set at -1.5 mm from the horizontal line, the calvarium was exposed by a midline incision. Symmetrical burr holes (2 mm in diameter) were drilled at 3.7 mm posterior to the bregma and 3.2 mm lateral to the sagittal suture. Bipolar electrodes (50 mm shaft, Rhodes Medical Instruments, Woodland Hills, CA, U.S.A.) were lowered into the trigeminal ganglia to a depth of 9.5 mm from the dura mater overlying the dorsal surface of the brain. […] Radioactivity was determined on two sides with a gamma counter (Micromedic 4/600, Micromedic Systems, Inc., Huntsville, AL, U.S.A.) as previously described (Markowitz, et al., 1987 and Lee, et al., 1993).

Molecules are shown by their SMILES.

`CNS(=O)(=O)Cc1ccc2[nH]cc(CCN(C)C)c2c1` [sumatriptan] yielded an ID50 of 3.3 to 7 nM/kg.
